The nature of assay [1]: C. neoformans growth inhibition with sorbitol, dose response, counter-screen for C. neoformans cell wall antifungals, alamar blue, sorbitol added, dry powder (AID 743123). Particulars: C. neoformans, alamar blue, sorbitol counter-screen, 24 h; at 35 µM (top of the series). Background: The purpose of a counterscreen is to sort out artefacts and off-target activity.
Assay [2] relates to C. neoformans, alamar blue, sorbitol counter-screen, 24 h. The assay is described as above.

SMILES strings stand for the structures. “And” between values parts separate entries of the source, which are not always exact repeats. Identical values can stand only once. Inconclusive results are not listed. The source made the active and inactive calls.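 How the source made its calls: active means inhibition with a half-effect concentration no higher than twice the top valid dose tested; inconclusive means flat fit inhibiting 30 to 70%, or a poor fit; inactive means effect in the wrong direction, plus the rest.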

In the case of `O=c1[nH]c2ccccc2n1CCOc1ccccc1`, the activity change, negative = inhibition in assay [1] is -36.6% (inactive).
As for `CCOC(=O)c1c(-c2ccc(F)cc2)csc1NC(=O)CN1CCN(C)CC1`, the activity change, negative = inhibition in assay [1] was -15.2% (inactive).
One may read the AC50 as the concentration at which the activity in the assay is half-maximal. As for `CCOC(=O)c1c(-c2ccc(-c3ccccc3)cc2)csc1NC(=O)CNCCN(C)C`, the AC50 in assay [2] is 19.9 µM.
`Fc1ccccc1OCCn1c(=S)[nH]c2ccccc21`: the AC50 in assay [2] is 36.2 µM.
For the molecule `CCOC(=O)c1c(-c2ccc(OC)cc2)csc1NC(=O)CN(C)CC(=O)N(C)C`, the AC50 in assay [2] is 13.9 µM.
As for `CCOC(=O)c1c(-c2ccc(F)cc2)csc1NC(=O)CN1CCN(CC)CC1`, the AC50 in assay [2] was 36.1 µM.
For the molecule `Cc1ccccc1OCCn1c(=S)[nH]c2ccccc21`, in assay [2], the AC50 was 9.99 µM.
`CCOC(=O)c1c(NC(=O)CNCCN(C)C)sc(C)c1-c1ccccc1`: in assay [2], the AC50 is 1.09 µM.
For `Fc1cccc2c1[nH]c(=S)n2CCOc1ccccc1`, the AC50 in assay [2] was 31.9 µM.
On to `CCOc1ccc(OCCn2c(=S)[nH]c3ccccc32)cc1`, for which the AC50 in assay [2] is 24.1 µM.
In the case of `COC(=O)C1=C(C)N(Cc2ccc(Br)cc2)C(=S)NC1c1ccc(F)cc1` (stereo not given), the AC50 in assay [2] is 5.99 µM.
In the case of `COC(=O)C1=C(C)N(Cc2ccc(Cl)cc2)C(=S)NC1c1ccc(Br)cc1` (stereo not given), the AC50 in assay [2] is 3.11 µM.
Turning to `Cc1ccc(OCCn2cnc3ccccc32)cc1`, in assay [2], the AC50 was 7.76 µM.
For the molecule `S=c1[nH]c2cccc(Cl)c2n1CCOc1ccccc1`, the AC50 in assay [2] is 11.6 µM.
On the same count and under the same terms, next, `S=c1[nH]c2ccccc2n1CCOc1ccccc1`: 28.5 µM; `S=c1[nH]c2ccccc2n1CCOc1ccc(Cl)cc1`: 14.7 µM.
As for `c1ccc(OCCn2cnc3ccccc32)cc1`, the activity change, negative = inhibition in assay [1] is -38.4% (inactive).
Take `Cc1ccc(OCCn2c(=S)[nH]c3ccccc32)c(C(C)C)c1`: in assay [2], the AC50 is 8.54 µM and 9.18 µM.
Turning to `COC(=O)C1=C(C)N(Cc2ccc(Br)cc2)C(=S)NC1c1ccc(OC)cc1` (stereo not given), in assay [2], the AC50 was 23.9 µM.
Take `COC(=O)C1=C(C)N(Cc2ccc(F)cc2)C(=S)NC1c1cccc(F)c1` (stereo not given): the AC50 in assay [2] was 24.2 µM.
`Cc1cccc(OCCn2c(=S)[nH]c3cc(C(F)(F)F)ccc32)c1`: the activity change, negative = inhibition in assay [1] was -32% (inactive).
In the case of `Cc1ccc(OCCn2c(SCCO)nc3ccccc32)c(C(C)C)c1`, in assay [2], the AC50 is 7.62 µM.
Same read-out and setting: next, `CCOC(=O)c1c(-c2ccc(C(C)(C)C)cc2)csc1NC(=O)CN1CCN(C)CC1`: 13.7 µM.
In the case of `CCOC(=O)c1c(NC(=O)CN2CCN(C)CC2)sc(C)c1-c1ccc(C)cc1`, in assay [2], the AC50 was 16.9 µM.
`COC(=O)C1=C(C)N(Cc2ccccc2)C(=S)NC1c1ccc(Br)cc1` (stereo not given): the AC50 in assay [2] is 9.1 µM.
As for `Cc1ccc2c(c1)[nH]c(=S)n2CCOc1ccccc1`, in assay [2], the AC50 is 27.1 µM.
For `CCOC(=O)c1c(-c2ccc(C(C)(C)C)cc2)csc1NC(=O)CN1CCN(CC)CC1`, in assay [2], the AC50 is 14.6 µM.
Same read-out and setting: next, `Cc1ccc(OCCn2c(=S)[nH]c3ccccc32)cc1`: 10.9 µM.
For `Cc1ccc(OCCn2c(C)nc3ccccc32)cc1`, the activity change, negative = inhibition in assay [1] is -59.3% (inactive).
On to `Cc1ccc(C(C)C)c(OCCn2c(=S)[nH]c3ccccc32)c1`, for which, in assay [2], the AC50 is 10.1 µM.
